# Measured values taken from patent US8420657B2 (Novartis AG, priority 2008, dated 2013).
# Experiments:
# GST-JAK2(808-1132) = target: T1, GST-JAK2(808-1132) (Homo sapiens, UniProt O60674); experiment: JAK2 kinase assay (Caliper mobility shift, LabChip 3000); format: biochemical
# T1 construct: GST-JAK2(808-1132); purchased Invitrogen (Carlsbad, USA) #4288
# Method in brief: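 Eight-point compound series (final 10–0.003 μM) tested on purchased GST-JAK2 kinase domain (808-1132). Peptide FITC-JAK3tide plus ATP reacted 60 min, 30 °C, then quenched with EDTA; turnover from charge-based separation of substrate and product.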
# [1] = system: JAK1/JAK2-dependent nuclear translocation of STAT1-GFP in HT1080 fibrosarcoma cells; experiment: STAT1 nuclear translocation assay (Cellomics), IFN-γ stimulated HT1080 STAT1-GFP cells; format: cell-based; settings: Homo sapiens, HT-1080, STAT1 translocation pathway
# Method in brief: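 IC50 derived from percent nuclear STAT1-GFP translocation, computed from nuclear minus cytoplasmic GFP intensity against untreated baseline and DMSO-stimulated control. Stable HT1080 STAT1-GFP cells received compound (0.003–10 μM, 0.1% DMSO) 30 min ahead of a 2 h 100 ng/ml IFN-γ stimulus, then fixation and Hoechst nuclear masking.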
# T1 sequence (O60674 808-1132): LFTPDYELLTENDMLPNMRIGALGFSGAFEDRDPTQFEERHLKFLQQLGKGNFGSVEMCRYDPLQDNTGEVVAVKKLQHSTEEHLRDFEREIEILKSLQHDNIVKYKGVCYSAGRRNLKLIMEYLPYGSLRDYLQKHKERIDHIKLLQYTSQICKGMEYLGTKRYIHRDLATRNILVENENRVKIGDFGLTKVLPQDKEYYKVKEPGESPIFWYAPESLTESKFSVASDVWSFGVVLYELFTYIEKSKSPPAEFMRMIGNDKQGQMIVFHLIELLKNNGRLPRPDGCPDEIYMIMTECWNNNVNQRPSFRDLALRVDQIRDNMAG
structure (smiles),measurement,setting,value
"Cc1ccc(Nc2ncc3ccn(-c4ccc(CC(=O)N5CCS(=O)(=O)CC5)c(F)c4)c3n2)cc1C [Example 156, 2-{4-[2-(3,4-Dimethyl-phenylamino)-pyrrolo[2,3-d]pyrimidin-7-yl]-2-fluoro-phenyl}-1-(1,1-dioxido-1-thiomorpholin-4-yl)-ethanone]",IC50,GST-JAK2(808-1132),13 nM
same,IC50,[1],60 nM
"CC(C)Oc1ccc(Nc2ncc3ccn(-c4ccc(N5CCNCC5=O)cc4)c3n2)cc1 [Example 104, 1-{4-[2-(4-Isopropoxy-phenylamino)-pyrrolo[2,3-d]pyrimidin-7-yl]-phenyl}-piperazin-2-one]",IC50,GST-JAK2(808-1132),3.6 nM
same,IC50,[1],865 nM
"CC(C)Oc1ccc(Nc2ncc3ccn(-c4ccc(C(=O)N5CCOCC5)c(F)c4)c3n2)cn1 [Example 226, {2-Fluoro-4-[2-(6-isopropoxy-pyridin-3-ylamino)-pyrrolo[2,3-d]pyrimidin-7-yl]-phenyl}-morpholin-4-yl-methanone]",IC50,GST-JAK2(808-1132),10.5 nM
same,IC50,[1],666 nM
"COc1cc(Nc2ncc3cc(C)n(-c4ccc(CN5CCOCC5)c(F)c4)c3n2)ccc1F [Example 164, (4-Fluoro-3-methoxy-phenyl)-[7-(3-fluoro-4-morpholin-4-ylmethyl-phenyl)-6-methyl-7H-pyrrolo[2,3-d]pyrimidin-2-yl]-amine]",IC50,GST-JAK2(808-1132),230 nM
same,IC50,[1],10700 nM
COc1ccc(Nc2ncc3ccn(-c4cc(F)c(C(=O)N5CCOCC5)c(F)c4)c3n2)cn1 [Example 220],IC50,GST-JAK2(808-1132),11 nM
same,IC50,[1],880 nM
"CS(=O)(=O)c1ccc(-n2ccc3cnc(Nc4ccc(CN5CCOCC5)cc4)nc32)cc1 [Example 44, [7-(4-Methanesulfonyl-phenyl)-7H-pyrrolo[2,3-d]pyrimidin-2-yl]-(4-morpholin-4-ylmethyl-phenyl)-amine]",IC50,GST-JAK2(808-1132),< 3 nM
same,IC50,[1],142 nM
"Cc1ccc(Nc2ncc3ccn(-c4cc(F)c(CN5CCNC(=O)C5)c(F)c4)c3n2)cc1CN1CCN(C)CC1 [Example 343, 4-(2,6-Difluoro-4-{2-[4-methyl-3-(4-methyl-piperazin-1-ylmethyl)-phenylamino]-pyrrolo[2,3-d]pyrimidin-7-yl}-benzyl)-piperazin-2-one]",IC50,GST-JAK2(808-1132),≤ 3 nM
same,IC50,[1],151 nM
"CN1CCN(C(=O)c2c(F)cc(-n3ccc4cnc(Nc5ccc(CN6CCOCC6)cc5)nc43)cc2F)CC1 [Example 192, {2,6-Difluoro-4-[2-(4-morpholin-4-ylmethyl-phenylamino)-pyrrolo[2,3-d]pyrimidin-7-yl]-phenyl}-(4-methyl-piperazin-1-yl)-methanone]",IC50,GST-JAK2(808-1132),11.5 nM
same,IC50,[1],1490 nM
"Cc1cc(Nc2ncc3ccn(-c4ccc(S(C)(=O)=O)cc4)c3n2)ccc1C(=O)N1CCCC1 [Example 75, {4-[7-(4-Methanesulfonyl-phenyl)-7H-pyrrolo[2,3-d]pyrimidin-2-ylamino]-2-methyl-phenyl}-pyrrolidin-1-yl-methanone]",IC50,GST-JAK2(808-1132),< 3 nM
same,IC50,[1],82.5 nM
"Cc1ccc(Nc2ncc3ccn(-c4cc(F)c(CN5CCS(=O)(=O)CC5)c(F)c4)c3n2)cc1C [Example 290, (3,4-Dimethyl-phenyl)-{7-[4-(1,1-dioxido-thiomorpholin-4-ylmethyl)-3,5-difluoro-phenyl]-7H-pyrrolo[2,3-d]pyrimidin-2-yl}-amine]",IC50,GST-JAK2(808-1132),< 3 nM
same,IC50,[1],37 nM
"CC(C)Oc1ccc(Nc2ncc3ccn(-c4ccc(C(=O)N5CCOCC5)c(Cl)c4)c3n2)cc1 [Example 99, {2-Chloro-4-[2-(4-isopropoxy-phenylamino)-pyrrolo[2,3-d]pyrimidin-7-yl]-phenyl}-morpholin-4-yl-methanone]",IC50,GST-JAK2(808-1132),3.9 nM
same,IC50,[1],555 nM
"Fc1cc(-n2ccc3cnc(Nc4ccc(N5CCNCC5)nc4)nc32)cc(F)c1CN1CCOCC1 [Example 263, [7-(3,5-Difluoro-4-morpholin-4-ylmethyl-phenyl)-7H-pyrrolo[2,3-d]pyrimidin-2-yl]-(6-piperazin-1-yl-pyridin-3-yl)-amine]",IC50,GST-JAK2(808-1132),< 3 nM
same,IC50,[1],55 nM
"O=C(c1ccc(-n2ccc3cnc(Nc4ccc(F)cc4)nc32)cc1)N1CCCC1 [Example 57, {4-[2-(4-Fluoro-phenylamino)-pyrrolo[2,3-d]pyrimidin-7-yl]-phenyl}-pyrrolidin-1-yl-methanone]",IC50,GST-JAK2(808-1132),< 3 nM
same,IC50,[1],772 nM
CN1CCN(c2ccc(Nc3ncc4ccn(-c5cc(F)c(C(=O)N6CCOCC6)c(F)c5)c4n3)cn2)CC1 [Example 221],IC50,GST-JAK2(808-1132),4.7 nM
same,IC50,[1],360 nM
"CCN1CCN(Cc2c(F)cc(-n3ccc4cnc(Nc5ccc(F)c(C)c5)nc43)cc2F)CC1 [Example 132, {7-[4-(4-Ethyl-piperazin-1-ylmethyl)-3,5-difluoro-phenyl]-7H-pyrrolo[2,3-d]pyrimidin-2-yl}-(4-fluoro-3-methyl-phenyl)-amine]",IC50,GST-JAK2(808-1132),40.5 nM
same,IC50,[1],6280 nM
"Cc1cncc(Nc2ncc3ccn(-c4cc(F)c(C(=O)N5CCOCC5)c(F)c4)c3n2)c1 [Example 242, {2,6-Difluoro-4-[2-(5-methyl-pyridin-3-ylamino)-pyrrolo[2,3-d]pyrimidin-7-yl]-phenyl}-morpholin-4-yl-methanone]",IC50,GST-JAK2(808-1132),4.3 nM
same,IC50,[1],355 nM
"COc1ccc(Nc2ncc3ccn(-c4ccc(C(=O)N5CCOCC5)cc4)c3n2)cn1 [Example 234, {4-[2-(6-Methoxy-pyridin-3-ylamino)-pyrrolo[2,3-d]pyrimidin-7-yl]-phenyl}-morpholin-4-yl-methanone]",IC50,GST-JAK2(808-1132),8.1 nM
same,IC50,[1],910 nM
"O=C(c1ccc(-n2ccc3cnc(Nc4ccc(F)cc4)nc32)cc1)N1CCOCC1 [Example 61, {4-[2-(4-Fluoro-phenylamino)-pyrrolo[2,3-d]pyrimidin-7-yl]-phenyl}-morpholin-4-yl-methanone]",IC50,GST-JAK2(808-1132),7.1 nM
same,IC50,[1],835 nM
"CN1CCN(C(=O)Cc2cccc(Nc3ncc4ccn(-c5ccc(S(C)(=O)=O)cc5)c4n3)c2)CC1 [Example 70, 2-{3-[7-(4-Methanesulfonyl-phenyl)-7H-pyrrolo[2,3-d]pyrimidin-2-ylamino]-phenyl}-1-(4-methyl-piperazin-1-yl)-ethanone]",IC50,GST-JAK2(808-1132),5.6 nM
same,IC50,[1],275 nM
"C[C@@H]1CN[C@@H](C)CN1c1ccc(Nc2ncc3ccn(-c4ccc(S(C)(=O)=O)cc4)c3n2)cn1 (racemic) [Example 274, [6-((2R,5S)-2,5-Dimethyl-piperazin-1-yl)-pyridin-3-yl]-[7-(4-methanesulfonyl-phenyl)-7H-pyrrolo[2,3-d]pyrimidin-2-yl]-amine]",IC50,GST-JAK2(808-1132),7.2 nM
same,IC50,[1],520 nM
"CC(C)Oc1ccc(Nc2ncc3ccn(-c4ccc(CC(=O)N5CCOCC5)cc4)c3n2)cc1 [Example 102, 2-{4-[2-(4-Isopropoxy-phenylamino)-pyrrolo[2,3-d]pyrimidin-7-yl]-phenyl}-1-morpholin-4-yl-ethanone]",IC50,GST-JAK2(808-1132),< 3 nM
same,IC50,[1],275 nM
"CC(C)Oc1ccc(Nc2ncc3ccn(-c4ccc(C(=O)N5CCOCC5)c(F)c4)c3n2)cc1 [Example 98, {2-Fluoro-4-[2-(4-isopropoxy-phenylamino)-pyrrolo[2,3-d]pyrimidin-7-yl]-phenyl}-morpholin-4-yl-methanone]",IC50,GST-JAK2(808-1132),5.6 nM
same,IC50,[1],575 nM
"CCN1CCN(c2ccc(Nc3ncc4ccn(-c5ccc(C(=O)N6CCOCC6)c(F)c5)c4n3)cc2C)CC1 [Example 293, (4-{2-[4-(4-Ethyl-piperazin-1-yl)-3-methyl-phenylamino]-pyrrolo[2,3-d]pyrimidin-7-yl}-2-fluoro-phenyl)-morpholin-4-yl-methanone]",IC50,GST-JAK2(808-1132),< 3 nM
same,IC50,[1],8 nM
